According to PubChem BioAssay (NCI):
Where “and” joins values, the source holds several entries; their conditions need not be identical. Equal values may be shown once.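 Each compound was tested at five concentrations against cells in 96-well plates for 48 hours. Here, GI50 denotes the concentration required for 50% inhibition of growth. At the TGI there is no net growth.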

What was measured:
Assay in all cases: NCI anticancer screen, dose series, 48 h
BT-549 breast = system: BT-549 breast
U251 CNS = system: U251 CNS
SF-539 CNS = system: SF-539 CNS
HOP-92 NSCLC = system: HOP-92 NSCLC
HCC-2998 colon = system: HCC-2998 colon
SK-MEL-2 melanoma = system: SK-MEL-2 melanoma
SK-OV-3 ovarian = system: SK-OV-3 ovarian
NCI-H23 lung = system: NCI-H23 lung
SK-MEL-28 melanoma = system: SK-MEL-28 melanoma
NCI/ADR-RES ovarian = system: NCI/ADR-RES ovarian

Compound	GI50 (BT-549 breast)	GI50 (U251 CNS)	GI50 (SF-539 CNS)	TGI (SF-539 CNS)	GI50 (HOP-92 NSCLC) [nM]	TGI (HOP-92 NSCLC)	TGI (HCC-2998 colon)	TGI (SK-MEL-2 melanoma)	TGI (U251 CNS)	TGI (SK-OV-3 ovarian)	TGI (NCI-H23 lung) [µM]	TGI (SK-MEL-28 melanoma)	TGI (NCI/ADR-RES ovarian)	TGI (BT-549 breast)	GI50 (HCC-2998 colon)	GI50 (SK-OV-3 ovarian)	GI50 (NCI-H23 lung)	GI50 (NCI/ADR-RES ovarian)	GI50 (SK-MEL-28 melanoma)	GI50 (SK-MEL-2 melanoma)
Nc1ncc(-c2ccc3ncnc(Nc4cccc(Cl)c4)c3c2)cn1	0.262 µM	0.538 µM	0.279 µM and 2.14 µM	> 100 µM	7.41	0.0974 µM	–	–	–	–	–	–	–	–	–	–	–	–	–	–
CC(=O)OC12C(C)=C(C)C(=O)N1c1ccccc1N2C(C)=O (configuration not stated)	–	–	–	–	–	> 100 µM	> 100 µM	> 100 µM	> 100 µM	> 100 µM	> 100	> 100 µM	–	–	–	–	–	–	–	–
CC(=O)OCc1c(O)c2c([nH]c1=O)CCc1ccccc1-2	–	–	–	177 µM	–	182 µM	197 µM	> 35 µM	> 350 µM	> 350 µM	218	130 µM	–	–	–	–	–	–	–	–
Nc1nc(=O)n(C2CCC(CO)O2)cc1F (configuration not stated)	–	–	–	–	–	> 100 µM	> 100 µM	> 100 µM	> 100 µM	> 100 µM	> 100	> 100 µM	–	–	–	–	–	–	–	–
O=C1CCCCCCC2=C1C(Sc1ccccc1)CC2 (configuration not stated)	–	–	–	–	–	–	–	–	> 100 µM	> 100 µM	> 100	94.8 µM	–	–	–	–	–	–	–	–
COc1ccc(NC(=O)Oc2ccc3c(C)cc(=O)oc3c2)c(OC)c1 (tested in a mixture with another compound)	–	–	–	> 100 µM	–	–	> 100 µM	> 100 µM	> 100 µM	> 100 µM	> 100	> 100 µM	> 100 µM	–	–	–	–	–	–	–
O=C(O)/C=C/c1ccc(Oc2ccccc2C(=O)O)o1	–	–	–	> 10 µM	–	> 10 µM	> 10 µM	–	> 10 µM	> 10 µM	> 10	> 10 µM	> 10 µM	> 10 µM	–	–	–	–	–	–
COc1ccc(-c2ncnc3c2ncn3CC#CCCl)cc1	2.98 µM	1.96 µM	6.48 µM	20.9 µM	2750	11.8 µM	31.8 µM	–	4.85 µM	22.7 µM	21.4	21.8 µM	8.15 µM	13.6 µM	17.6 µM	10.5 µM	7.83 µM	2.72 µM	9.87 µM	–
CC(Oc1ccc2c(-c3ccc(Cl)cc3)cc(=O)oc2c1)C(=O)O (configuration not stated)	–	–	–	> 100 µM	–	> 100 µM	> 100 µM	–	> 100 µM	> 100 µM	> 100	> 100 µM	–	–	–	–	–	–	–	–
CC(C)(C)OC(=O)C1C(=O)NC(=O)CC1CC(OCc1ccccc1)C(OCc1ccccc1)C(COCc1ccccc1)OCc1ccccc1 (configuration not stated)	–	19.6 µM and 5.39 µM	> 100 µM and 36.6 µM	> 100 µM	–	> 100 µM and 68.1 µM	> 100 µM	–	> 100 µM and 56.3 µM	–	> 100	> 100 µM	> 100 µM and 61.7 µM	79.5 µM and > 100 µM	–	–	80.1 µM and 30 µM	36.8 µM and 12.1 µM	> 100 µM and 18.7 µM	–
COc1ccc(N2C(=O)C3CC(c4ccc(Br)cc4)c4c([nH]c5ccccc45)C3C2=O)cc1 (configuration not stated)	–	–	–	11.7 µM	–	29.3 µM	–	> 100 µM	–	–	28.5	28.5 µM	–	–	–	–	–	–	–	–
CCC[CH2][Sn](=[O])[CH2]CCC	–	> 50 µM	> 50 µM	> 50 µM	31900	> 50 µM	> 50 µM	> 50 µM	> 50 µM	> 50 µM	> 50	> 50 µM	–	–	> 50 µM	> 50 µM	> 50 µM	–	> 50 µM	> 50 µM
O=C1c2ccccc2C(=O)N1CCc1ncc(-c2ccccc2)[nH]1	–	–	–	> 100 µM	–	–	> 100 µM	> 100 µM	> 100 µM	> 100 µM	> 100	> 100 µM	> 100 µM	> 100 µM	–	–	–	–	–	–
C[C@@H]1C[C@H](N)C[C@H](c2ccncc2NC(=O)c2ccc(F)c(-c3c(F)cccc3F)n2)C1	10.3 µM and 5.17 µM	12 µM and > 10 µM	11.3 µM and > 10 µM	23.5 µM and > 10 µM	–	–	18 µM and > 10 µM	34.8 µM and > 10 µM	24.7 µM and > 10 µM	26.8 µM and > 10 µM	–	22.6 µM and > 10 µM	30.6 µM and > 10 µM	22.6 µM and > 10 µM	3.42 µM and 4.16 µM	12.7 µM and > 10 µM	–	14.5 µM and > 10 µM	10.4 µM and > 10 µM	17.1 µM and > 10 µM
CCCCN(CC)C(=O)C(=O)Cc1nc2ccc(C(=O)c3ccccc3)cc2[nH]c1=O	–	–	–	> 100 µM	–	> 100 µM	–	–	> 100 µM	> 100 µM	> 100	> 100 µM	–	–	–	–	–	–	–	–
CC(C)(C)C1=CC(=N/N=c2\scc(-c3ccccc3)n2-c2ccccc2)C=C(C(C)(C)C)C1=O	–	–	–	> 100 µM	–	> 100 µM	> 100 µM	> 100 µM	> 100 µM	> 100 µM	> 100	> 100 µM	–	–	–	–	–	–	–	–
